“And” between values parts separate entries of the source, which are not always exact repeats. Equal entries are not always repeated.
Conditions: Fluid (supercritical or subcritical phases), Impulsive stimulated scattering

N [ammonia]
Conditions	speed of sound
297 K, 620000 kPa	2741 m/s
297 K, 700000 kPa	2836 m/s
297 K, 780000 kPa	2942 m/s and 2932 m/s
297 K, 880000 kPa	3023 m/s
297 K, 970000 kPa	3113 m/s
298 K, 370000 kPa	2376 m/s
298 K, 740000 kPa	2903 m/s
474 K, 1430000 kPa	3280 m/s
476 K, 1550000 kPa	3375 m/s
476 K, 2200000 kPa	3788 m/s
477 K, 1090000 kPa	2954 m/s
479 K, 2220000 kPa	3797 m/s
678 K, 2920000 kPa	4000 m/s
678 K, 3080000 kPa	4072 m/s
678 K, 3140000 kPa	4103 m/s
679 K, 1480000 kPa	3084 m/s
679 K, 2440000 kPa	3740 m/s
679 K, 3750000 kPa	4342 m/s
680 K, 1350000 kPa	2982 m/s and 2970 m/s

Source: the NIST ThermoML archive (doi:10.1021/je800312g)
